Measured values from paper PMC9415638, “Discovery of novel thiazolyl-pyrazolines as dual EGFR and VEGFR-2 inhibitors endowed with in vitro antitumor activity towards non-small lung cancer” (Journal of Enzyme Inhibition and Medicinal Chemistry, 2022).

Legend:
[1] = tested on: H441 lung cancer cells; assay: Anti-proliferative MTT assay; conditions: Homo sapiens, NCI-H441, 24 h; for inhibition at 10 µM: read-out: % Growth inhibition ± SEM H441; for IC50: read-out: IC50 (µM) ± SEM H441, MTT, 24 h, n = 3
[2] = target: EGFR (Homo sapiens, UniProt P00533); assay: EGFR kinase assay (PGT-coated 96-well plates); assay type: biochemical; conditions: read-out: IC50 (nM) ± SEM EGFR
EGFR, sequence (P00533 25-1210): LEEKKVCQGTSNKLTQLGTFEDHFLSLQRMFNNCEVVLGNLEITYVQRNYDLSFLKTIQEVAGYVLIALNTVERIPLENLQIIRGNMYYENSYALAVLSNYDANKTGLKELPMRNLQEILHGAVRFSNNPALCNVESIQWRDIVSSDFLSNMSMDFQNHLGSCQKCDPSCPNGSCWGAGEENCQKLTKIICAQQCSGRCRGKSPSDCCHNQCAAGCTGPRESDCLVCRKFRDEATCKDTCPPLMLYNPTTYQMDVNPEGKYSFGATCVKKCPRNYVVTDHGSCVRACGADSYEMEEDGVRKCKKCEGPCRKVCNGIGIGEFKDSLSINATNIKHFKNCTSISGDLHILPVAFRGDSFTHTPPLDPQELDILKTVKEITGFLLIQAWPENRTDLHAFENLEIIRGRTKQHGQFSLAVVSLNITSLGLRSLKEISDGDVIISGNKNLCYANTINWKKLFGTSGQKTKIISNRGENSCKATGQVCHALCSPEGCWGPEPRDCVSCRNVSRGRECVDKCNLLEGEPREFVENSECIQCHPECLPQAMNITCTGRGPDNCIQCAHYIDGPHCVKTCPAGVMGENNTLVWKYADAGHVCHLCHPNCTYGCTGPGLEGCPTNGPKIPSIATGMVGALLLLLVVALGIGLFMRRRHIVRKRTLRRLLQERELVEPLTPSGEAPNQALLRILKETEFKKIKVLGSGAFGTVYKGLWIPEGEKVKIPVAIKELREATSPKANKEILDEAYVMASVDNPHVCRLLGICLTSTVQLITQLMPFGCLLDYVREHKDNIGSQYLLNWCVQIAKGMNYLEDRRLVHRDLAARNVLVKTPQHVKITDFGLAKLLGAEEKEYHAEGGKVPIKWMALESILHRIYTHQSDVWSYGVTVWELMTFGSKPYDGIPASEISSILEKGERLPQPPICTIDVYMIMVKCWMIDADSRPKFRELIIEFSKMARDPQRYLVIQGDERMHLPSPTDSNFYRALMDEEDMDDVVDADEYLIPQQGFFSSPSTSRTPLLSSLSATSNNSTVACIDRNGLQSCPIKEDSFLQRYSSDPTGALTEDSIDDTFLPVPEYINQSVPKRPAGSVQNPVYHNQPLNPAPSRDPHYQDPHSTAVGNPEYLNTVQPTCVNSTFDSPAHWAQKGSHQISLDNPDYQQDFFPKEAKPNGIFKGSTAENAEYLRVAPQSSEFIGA
Procedure: (§1) The EGFR kinase assay was carried out in 96-well plates coated with PGT (poly l-glutamic acid l-tyrosine, 4:1, Sigma Aldrich, St. Louis, MO) as previously described. IC50 values were calculated using GraphPad Prism 5. Each experiment was carried out at least three times. The VEGFR-2 kinase assay was carried out in 96-well streptavidin coated plate using recombinant human VEGFR-2/KDR ELISA kit according to manufacturer’s instructions.

[3] = tested on: MCF-7 breast cancer cells; assay: Anti-proliferative MTT assay; assay type: cell-based; conditions: Homo sapiens, MCF7, 24 h, read-out: % Growth inhibition ± SEM MCF-7
Procedure: (§2) To evaluate the anti-proliferative activity of the synthesised thiazolyl-pyrazoline derivatives (7a–7d, 10a–10d, and 13a–13f), a preliminary in vitro one dose (10 µM) anticancer assay was performed. Nine cell lines derived from five tumour subpanels were examined; leukaemia (K562 and KG-1a), breast (MCF-7, BT-549 and HCC70), lung (A549 and H441), colon (HCT116) and liver (HepG2) cancer cell lines. The compounds were added at a single concentration (10 µM) and the cultures were incubated for 24 h, then the per cent growth inhibition (%GI) was calculated.
(§3) Human leukaemia (K562 and KG-1a), breast (MCF-7, BT-549 and HCC70), lung (A549, H441, NCI-H1650 and NCI-H1975), colon (HCT116), liver (HepG2) cancer cell lines and WI-38 human lung fibroblast cell line were obtained from the American Type Culture Collection (ATCC; Manassas, VA) and were cultured in their suitable media containing 10% foetal bovine serum (FBS; Sigma-Aldrich) in a humidified atmosphere with 5% CO2 at 37 °C. Gefitinib and vandetanib were purchased from Sigma-Aldrich. All chemicals used in this study were analytical or cell-culture grade.
(§4) Cytotoxicity was measured using the MTT assay. Human leukaemia (K562 and KG-1a), breast (MCF-7, BT-549 and HCC70), lung (A549, H441, NCI-H1650 and NCI-H1975), colon (HCT116), liver (HepG2) cancer cell lines and WI-38 human lung fibroblast cell line were plated at a density of 1 × 10^4 cells per well in 96-well plates overnight and then treated with the compounds. After 24 h treatment, 20 μL of MTT solution (2 mg/mL in phosphate-buffered saline [PBS]) was added to each well and the cells were cultured for another 4 h at 37 °C. The medium was aspirated and 150 μL DMSO was added to solubilise MTT formazan crystals. The plates were then shaken, and the optical density was determined at 570 nm using an ELISA plate reader (Model 550, Bio-Rad, Hercules, CA). At least three independent experiments were performed. The IC50 values were calculated using GraphPad Prism 5 (Version 5.01, GraphPad Software, San Diego, CA).

[4] = tested on: K562 leukaemia cells; assay: Anti-proliferative MTT assay; assay type: cell-based; conditions: Homo sapiens, 24 h, read-out: % Growth inhibition ± SEM K562
Procedure: as §2, §3, §4

[5] = tested on: BT-549 breast cancer cells; assay: Anti-proliferative MTT assay; assay type: cell-based; conditions: Homo sapiens, 24 h, read-out: % Growth inhibition ± SEM BT-549
Procedure: as §2, §3, §4

[6] = tested on: HepG2 liver cancer cells; assay: Anti-proliferative MTT assay; assay type: cell-based; conditions: Homo sapiens, 24 h, read-out: % Growth inhibition ± SEM HepG2
Procedure: as §2, §3, §4

[7] = tested on: KG-1a leukaemia cells; assay: Anti-proliferative MTT assay; assay type: cell-based; conditions: Homo sapiens, 24 h, read-out: % Growth inhibition ± SEM KG-1a
Procedure: as §2, §3, §4

[8] = tested on: HCC70 breast cancer cells; assay: Anti-proliferative MTT assay; assay type: cell-based; conditions: Homo sapiens, 24 h, read-out: % Growth inhibition ± SEM HCC70
Procedure: as §2, §3, §4

[9] = tested on: HCT116 colon cancer cells; assay: Anti-proliferative MTT assay; assay type: cell-based; conditions: Homo sapiens, HCT-116, 24 h, read-out: % Growth inhibition ± SEM HCT116
Procedure: as §2, §3, §4

[10] = target: T1, recombinant human VEGFR-2/KDR (Homo sapiens, UniProt P35968); assay: VEGFR-2 kinase assay (VEGFR-2/KDR ELISA kit); assay type: biochemical; conditions: read-out: IC50 (nM) ± SEM VEGFR-2
T1 construct: purchased
T1 sequence (P35968 20-1356): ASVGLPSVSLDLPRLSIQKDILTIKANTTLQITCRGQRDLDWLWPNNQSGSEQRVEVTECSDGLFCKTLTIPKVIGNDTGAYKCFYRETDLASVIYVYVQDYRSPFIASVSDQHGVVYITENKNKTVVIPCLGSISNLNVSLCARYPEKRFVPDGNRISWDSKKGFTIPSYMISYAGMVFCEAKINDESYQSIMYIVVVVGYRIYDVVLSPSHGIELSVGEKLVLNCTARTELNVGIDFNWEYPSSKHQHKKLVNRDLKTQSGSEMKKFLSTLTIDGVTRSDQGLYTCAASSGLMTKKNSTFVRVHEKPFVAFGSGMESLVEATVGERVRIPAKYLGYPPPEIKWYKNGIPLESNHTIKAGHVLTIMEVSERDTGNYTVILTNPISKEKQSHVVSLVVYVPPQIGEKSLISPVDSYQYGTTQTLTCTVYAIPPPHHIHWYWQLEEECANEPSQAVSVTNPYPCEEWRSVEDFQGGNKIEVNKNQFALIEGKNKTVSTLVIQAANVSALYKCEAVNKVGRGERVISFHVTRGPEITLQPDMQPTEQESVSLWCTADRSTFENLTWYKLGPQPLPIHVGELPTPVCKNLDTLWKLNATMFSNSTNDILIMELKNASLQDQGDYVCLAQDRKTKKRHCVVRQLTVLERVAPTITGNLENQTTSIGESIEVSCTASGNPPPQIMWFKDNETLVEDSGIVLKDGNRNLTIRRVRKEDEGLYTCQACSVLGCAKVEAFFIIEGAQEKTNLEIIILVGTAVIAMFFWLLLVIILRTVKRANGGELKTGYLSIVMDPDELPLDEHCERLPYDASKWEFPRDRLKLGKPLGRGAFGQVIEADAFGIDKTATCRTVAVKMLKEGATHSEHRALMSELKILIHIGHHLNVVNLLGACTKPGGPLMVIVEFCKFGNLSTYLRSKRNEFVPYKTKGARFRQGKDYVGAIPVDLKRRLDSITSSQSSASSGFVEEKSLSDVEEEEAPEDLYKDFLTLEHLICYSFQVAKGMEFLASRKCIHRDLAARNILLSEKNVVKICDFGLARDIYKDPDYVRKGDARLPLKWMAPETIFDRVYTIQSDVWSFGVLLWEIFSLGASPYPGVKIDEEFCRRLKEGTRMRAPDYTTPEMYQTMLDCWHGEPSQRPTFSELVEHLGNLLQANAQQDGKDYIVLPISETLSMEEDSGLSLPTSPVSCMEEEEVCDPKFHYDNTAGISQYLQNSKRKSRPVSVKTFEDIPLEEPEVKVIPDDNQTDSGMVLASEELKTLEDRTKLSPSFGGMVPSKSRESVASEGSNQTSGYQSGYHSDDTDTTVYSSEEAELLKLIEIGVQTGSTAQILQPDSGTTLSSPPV
Procedure: as §1

[11] = tested on: WI-38 human lung fibroblast cells; assay: MTT cytotoxicity assay on normal cells; assay type: cell-based; conditions: Homo sapiens, WI-38; normal lung fibroblasts, MTT, 24 h, n = 3; read-out: IC50 (µM) ± SEM WI-38
Procedure: All chemicals used in this study were analytical or cell-culture grade.
Cytotoxicity was measured using the MTT assay. […] The medium was aspirated and 150 μL DMSO was added to solubilise MTT formazan crystals. The plates were then shaken, and the optical density was determined at 570 nm using an ELISA plate reader (Model 550, Bio-Rad, Hercules, CA). At least three independent experiments were performed.

[12] = tested on: A549 lung cancer cells; assay: Anti-proliferative MTT assay; conditions: Homo sapiens, A549, 24 h; for inhibition at 10 µM: read-out: % Growth inhibition ± SEM A549; for IC50: read-out: IC50 (µM) ± SEM A549

Structure (SMILES)	inhibition at 10 µM [1]	IC50 [1]	IC50 [2]	melting point	inhibition at 10 µM [3]	inhibition at 10 µM [4]	inhibition at 10 µM [5]	inhibition at 10 µM [6]	inhibition at 10 µM [7]	inhibition at 10 µM [8]	inhibition at 10 µM [9]	IC50 [10]	IC50 [11]	inhibition at 10 µM [12]	IC50 [12]
COc1ccc(C2CC(c3ccc(Cl)cc3Cl)=NN2c2nc(-c3ccc(Cl)cc3)cs2)cc1 (stereo not drawn) [Compound 7b, 4-(4-Chlorophenyl)-2-(3-(2,4-dichlorophenyl)-5-(4-methoxyphenyl)-4,5-dihydro-1H-pyrazol-1-yl)thiazole]	35.2 ± 1.2%	26.5 ± 1.1 µM	114.2 ± 0.4 nM	140 to 141 °C	25.9 ± 1.2%	21.5 ± 3%	5.2 ± 1%	34.4 ± 1.4%	21.7 ± 4.6%	19.6 ± 0.3%	18.8 ± 1.9%	195 ± 4.6 nM	60.6 ± 3.1 µM	45.2 ± 2.9%	12 ± 0.4 µM
COc1ccc(C2CC(c3ccc(Cl)cc3Cl)=NN2c2nc(C)c(N=Nc3ccc(Cl)cc3)s2)cc1OC (stereo not drawn) [Compound 13f, 5-((4-Chlorophenyl)diazenyl)-2-(3-(2,4-dichlorophenyl)-5-(3,4-dimethoxyphenyl)-4,5-dihydro-1H-pyrazol-1-yl)-4-methylthiazole]	17.3 ± 0.6%	24.8 ± 1.4 µM	107 ± 1.2 nM	190 to 191 °C	0.8 ± 0.2%	31.5 ± 1%	24.6 ± 1.3%	0.9 ± 0.3%	20 ± 2.8%	6.3 ± 1%	0.2%	113 ± 1.8 nM	> 100 µM	47.5 ± 3.1%	13.7 ± 2.2 µM
COc1ccc(C2CC(c3ccc(Cl)cc3Cl)=NN2c2nc(-c3ccccc3)cs2)cc1 (stereo not drawn) [Compound 7a, 2-(3-(2,4-Dichlorophenyl)-5-(4-methoxyphenyl)-4,5-dihydro-1H-pyrazol-1-yl)-4-phenylthiazole]	36.1 ± 2.1%	38.4 ± 2.3 µM	145 ± 2 nM	72 to 75 °C	0.07%	14.2 ± 2.1%	26.4 ± 3.6%	0.5%	18.4 ± 1.3%	27.3 ± 1%	0.5 ± 0.1%	125 ± 1.4 nM	88.2 ± 4.2 µM	34.9 ± 4.3%	22.5 ± 1.2 µM
COc1ccc(C2CC(c3ccc(Cl)cc3Cl)=NN2c2nc(C)c(N=Nc3ccccc3)s2)cc1OC (stereo not drawn) [Compound 13d, 2-(3-(2,4-Dichlorophenyl)-5-(3,4-dimethoxyphenyl)-4,5-dihydro-1H-pyrazol-1-yl)-4-methyl-5-(phenyldiazenyl)thiazole]	38.9 ± 2.4%	21.7 ± 1.3 µM	93.6 ± 3 nM	187 to 188 °C	11.9 ± 1.8%	18.2 ± 1.8%	14.2 ± 2.2%	18.6 ± 2.5%	24.1 ± 2.7%	22.3 ± 1.3%	10.1 ± 3.5%	336 ± 6.3 nM	64.2 ± 2.8 µM	12.6 ± 2.7%	57.1 ± 4.1 µM
